# “And” between values parts separate entries of the source, which are not always exact repeats. Equal values may be shown once. Read-outs that look alike come from different tables or passages of the source.
# Experiments:
# Assay type in all cases: biochemical
# [1] = target: T1, Bacteroides fragilis GUS (BfGUS) (Bacteroides fragilis, UniProt Q5LIC7); test: In vitro DCF-G processing assay (UPLC); details: DCF-G as substrate, 400 µM; pH 5.0; 37 °C
# Description: (§1) While pNPG serves as a useful tool to assess the glucuronide processing capabilities of GUS enzymes, it is not a substrate present in the GI tract. Given our hypothesis that L1 GUS enzymes efficiently process drug glucuronides, we determined using ultra performance liquid chromatography (UPLC) the cleavage rates of the novel L1 GUS enzymes FpGUS, LrGUS, RgGUS, as well as the ten additional enzymes in our GUS panel, with the physiologically relevant glucuronide metabolite of the NSAID diclofenac, DCF-G (Table 3 and Fig. S11).
# (§2) Diclofenac acyl β-D-glucuronide (DCF-G) was purchased as a solid (LC Scientific Inc., Concord ON) and resuspended in DMSO to a concentration of 25 mM. […] The pH of each reaction was chosen based on the optimal pH determined for each GUS with pNPG. Reactions were quenched at 0, 1, 2, 3, 4, and 5 min with 50 µL of 25% trichloroacetic acid (TCA). For PmGUS, reactions were quenched at 0, 10, 20, 30, 40, and 50 min. After centrifugation at 13,000xg for 10 min, the resultant supernatant was subjected to UPLC analysis. The concentration of DCF-G remaining at each time point was quantified on a Waters Acquity H-class liquid chromatograph system. Samples were separated on a Waters Acquity UPLC BEH C18 column (2.1 × 50 mm, 1.7 µm particle size) at 40 °C. The flow rate was 0.6 mL/min, and the injection volume was 3 µL. LC conditions were set at 100% water with 0.1% formic acid (A) ramped linearly over 9.8 mins to 95% acetonitrile with 0.1% formic acid (B) and held until 10.2 mins. At 10.21 mins the gradient was switched back to 100% A and allowed to re-equilibrate until 11.25 mins. DCF-G was monitored at 280 nm. The concentration of DCF-G was determined from a standard curve (0–500 µM DCF-G in assay buffer). Control reactions were performed in which enzyme was substituted with buffer. Background hydrolysis was not observed at each pH tested. Reactions were performed in triplicate for each enzyme.
# E. coli GUS (EcGUS) = E. coli GUS (EcGUS) (Escherichia coli, UniProt P05804); test: In vitro DCF-G processing assay (UPLC); details: DCF-G as substrate, 400 µM; pH 7.4; 37 °C
# Description: as §1, §2
# [2] = target: T2, Streptococcus agalactiae GUS (SaGUS) (Streptococcus agalactiae serotype V, UniProt Q8E0N2); test: In vitro DCF-G processing assay (UPLC); details: DCF-G as substrate, 400 µM; pH 6.5; 37 °C
# T2 construct: 6x His; made in house
# Description: as §1, §2
# [3] = target: Clostridium perfringens GUS (CpGUS) (Clostridium perfringens, UniProt Q8VNV4); details: pH 6.5; 37 °C
# [4] = target: T3, Faecalibacterium prausnitzii GUS (FpGUS) (Faecalibacterium duncaniae, UniProt C7H4D2); test: In vitro DCF-G processing assay (UPLC); details: DCF-G as substrate, 400 µM; pH 6.0; 37 °C
# T3 sequence (C7H4D2 1-608): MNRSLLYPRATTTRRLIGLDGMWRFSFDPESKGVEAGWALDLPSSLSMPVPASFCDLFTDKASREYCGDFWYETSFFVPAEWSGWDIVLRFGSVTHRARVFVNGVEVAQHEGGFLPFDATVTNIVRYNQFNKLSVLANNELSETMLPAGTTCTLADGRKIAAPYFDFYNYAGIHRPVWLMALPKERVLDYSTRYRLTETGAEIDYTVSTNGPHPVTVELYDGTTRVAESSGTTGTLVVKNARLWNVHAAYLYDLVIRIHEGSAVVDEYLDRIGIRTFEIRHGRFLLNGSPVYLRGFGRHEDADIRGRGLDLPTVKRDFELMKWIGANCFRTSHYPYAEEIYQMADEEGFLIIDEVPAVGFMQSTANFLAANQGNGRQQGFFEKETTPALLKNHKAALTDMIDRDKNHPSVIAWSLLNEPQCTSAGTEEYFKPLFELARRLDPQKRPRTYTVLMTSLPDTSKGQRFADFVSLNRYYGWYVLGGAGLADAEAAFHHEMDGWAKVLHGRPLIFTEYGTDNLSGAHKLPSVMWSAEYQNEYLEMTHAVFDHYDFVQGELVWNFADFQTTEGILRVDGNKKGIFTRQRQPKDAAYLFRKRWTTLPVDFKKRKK
# [5] = target: T4, Bacteroides uniformis GUS (BuGUS) (Bacteroides uniformis, UniProt A0A078SUX9); test: In vitro DCF-G processing assay (UPLC); details: DCF-G as substrate, 400 µM; pH 5.5; 37 °C
# T4 sequence (A0A078SUX9 32-886): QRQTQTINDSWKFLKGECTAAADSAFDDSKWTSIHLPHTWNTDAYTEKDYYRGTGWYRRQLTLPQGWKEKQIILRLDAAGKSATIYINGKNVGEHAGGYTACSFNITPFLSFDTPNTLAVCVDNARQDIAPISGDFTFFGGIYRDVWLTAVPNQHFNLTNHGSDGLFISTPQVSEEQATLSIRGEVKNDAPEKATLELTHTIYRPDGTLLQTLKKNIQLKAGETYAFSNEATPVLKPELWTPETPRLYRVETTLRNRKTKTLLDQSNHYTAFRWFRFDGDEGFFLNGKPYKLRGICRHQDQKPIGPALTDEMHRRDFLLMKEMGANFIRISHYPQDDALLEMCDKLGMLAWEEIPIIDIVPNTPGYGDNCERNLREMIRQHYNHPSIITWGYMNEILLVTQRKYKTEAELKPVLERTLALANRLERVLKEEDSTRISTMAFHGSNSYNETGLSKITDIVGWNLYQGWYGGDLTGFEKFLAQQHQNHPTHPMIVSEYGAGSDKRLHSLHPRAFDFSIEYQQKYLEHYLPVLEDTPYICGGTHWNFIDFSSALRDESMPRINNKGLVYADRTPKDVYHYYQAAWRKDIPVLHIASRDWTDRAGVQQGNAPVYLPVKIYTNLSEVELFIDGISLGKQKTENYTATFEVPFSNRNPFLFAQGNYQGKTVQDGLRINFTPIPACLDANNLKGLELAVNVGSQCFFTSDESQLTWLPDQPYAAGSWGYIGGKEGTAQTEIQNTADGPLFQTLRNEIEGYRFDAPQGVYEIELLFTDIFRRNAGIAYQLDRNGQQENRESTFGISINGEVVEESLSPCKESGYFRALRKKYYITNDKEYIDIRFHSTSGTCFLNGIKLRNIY
# [6] = target: T1, Bacteroides fragilis GUS (BfGUS); test: In vitro inhibition assay (pNPG hydrolysis)
# T1 sequence (Q5LIC7 whole entry): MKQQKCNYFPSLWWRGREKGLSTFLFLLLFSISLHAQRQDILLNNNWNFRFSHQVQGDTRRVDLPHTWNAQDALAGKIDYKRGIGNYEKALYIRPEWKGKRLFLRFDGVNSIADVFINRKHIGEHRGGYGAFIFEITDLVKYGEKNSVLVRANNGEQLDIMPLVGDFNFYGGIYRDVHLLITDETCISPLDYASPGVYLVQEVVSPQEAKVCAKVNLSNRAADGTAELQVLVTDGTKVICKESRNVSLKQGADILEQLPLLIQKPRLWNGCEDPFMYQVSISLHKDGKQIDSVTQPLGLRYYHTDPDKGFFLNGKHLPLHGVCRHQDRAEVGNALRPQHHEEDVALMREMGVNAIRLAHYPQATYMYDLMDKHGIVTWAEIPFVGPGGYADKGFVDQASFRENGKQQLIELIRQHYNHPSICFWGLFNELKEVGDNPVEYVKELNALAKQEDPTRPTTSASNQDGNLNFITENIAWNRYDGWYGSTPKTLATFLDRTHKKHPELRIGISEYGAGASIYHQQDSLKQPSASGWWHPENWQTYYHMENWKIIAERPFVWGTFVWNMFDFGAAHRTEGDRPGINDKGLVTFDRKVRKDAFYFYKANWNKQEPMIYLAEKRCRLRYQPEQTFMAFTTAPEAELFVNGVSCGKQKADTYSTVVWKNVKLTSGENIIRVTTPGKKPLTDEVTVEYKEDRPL
# T2 sequence (Q8E0N2 whole entry): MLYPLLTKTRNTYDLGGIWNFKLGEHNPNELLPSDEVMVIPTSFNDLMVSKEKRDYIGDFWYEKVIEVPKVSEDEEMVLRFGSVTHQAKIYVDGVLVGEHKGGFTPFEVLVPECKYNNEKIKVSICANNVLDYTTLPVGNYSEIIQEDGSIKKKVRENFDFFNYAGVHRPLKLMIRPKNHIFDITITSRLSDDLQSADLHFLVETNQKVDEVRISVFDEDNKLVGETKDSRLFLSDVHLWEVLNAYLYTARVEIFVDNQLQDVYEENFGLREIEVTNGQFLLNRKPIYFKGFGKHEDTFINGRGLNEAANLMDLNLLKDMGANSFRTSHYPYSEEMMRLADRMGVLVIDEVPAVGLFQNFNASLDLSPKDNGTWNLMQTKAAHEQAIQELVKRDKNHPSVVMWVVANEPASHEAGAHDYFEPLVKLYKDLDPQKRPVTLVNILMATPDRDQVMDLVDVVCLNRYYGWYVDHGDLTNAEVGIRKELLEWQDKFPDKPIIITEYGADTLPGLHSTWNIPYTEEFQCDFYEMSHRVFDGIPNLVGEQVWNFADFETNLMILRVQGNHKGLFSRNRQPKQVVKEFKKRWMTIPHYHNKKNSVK
# Chain of E. coli GUS (EcGUS) (P05804 whole entry): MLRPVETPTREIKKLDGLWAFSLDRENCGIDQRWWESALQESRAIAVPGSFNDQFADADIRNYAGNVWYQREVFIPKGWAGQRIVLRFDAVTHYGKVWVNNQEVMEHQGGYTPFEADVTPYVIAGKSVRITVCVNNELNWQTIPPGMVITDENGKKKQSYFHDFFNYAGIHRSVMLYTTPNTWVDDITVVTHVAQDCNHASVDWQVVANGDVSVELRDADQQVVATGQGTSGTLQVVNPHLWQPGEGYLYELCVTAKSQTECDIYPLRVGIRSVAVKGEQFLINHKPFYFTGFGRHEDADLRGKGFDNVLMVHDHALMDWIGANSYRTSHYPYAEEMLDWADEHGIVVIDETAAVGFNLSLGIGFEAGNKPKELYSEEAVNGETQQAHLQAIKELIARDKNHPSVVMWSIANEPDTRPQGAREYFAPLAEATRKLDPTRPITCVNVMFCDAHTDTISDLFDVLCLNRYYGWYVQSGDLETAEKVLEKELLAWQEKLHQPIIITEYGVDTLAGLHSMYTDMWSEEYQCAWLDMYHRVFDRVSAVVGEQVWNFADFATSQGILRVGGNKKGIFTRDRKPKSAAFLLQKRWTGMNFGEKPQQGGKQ
smiles,measurement,setting,value
"O=C(Cc1ccccc1Nc1c(Cl)cccc1Cl)O[C@@H]1O[C@H](C(=O)O)[C@@H](O)[C@H](O)[C@H]1O [DCF-G, Diclofenac acyl β-D-glucuronide]",Apparent kcat,[1],15.1 s⁻¹ and 15.1 ± 0.5 s⁻¹
same,Apparent kcat,E. coli GUS (EcGUS),30.7 s⁻¹ and 30.7 ± 0.7 s⁻¹
same,Apparent kcat,[2],97 s⁻¹ and 97 ± 5 s⁻¹
same,Apparent kcat,[3],61.5 ± 0.6 s⁻¹
same,Apparent kcat,[4],32 ± 3 s⁻¹
same,Apparent kcat,[5],10 ± 1 s⁻¹
CCOc1ccc(NC(=S)N(CCO)Cc2cc3cc(C)cc(C)c3[nH]c2=O)cc1 [Inhibitor 1],IC50,[6],> 100000 nM
same,IC50,"[6]; read-out: Inhibitor 1 (IC50, nM) pH 7.5, pH 7.5, pNPG 900 µM",> 100000 nM
C1CCc2c(c(N3CCOCC3)nc3sc4c(N5CCNCC5)nnnc4c23)C1 [UNC10201652],inhibition (in words),"[6]; UNC10201652, text in picture of Fig. 7b",No Inhibition
same,IC50,"[6]; pH 7.5, pNPG 900 µM, read-out: UNC10201652 (IC50, nM) pH 7.5",> 100000 nM
same,IC50,"[6]; read-out: UNC10201652 (IC50, nM) pH 6.5",> 100000 nM

# Source: article PMC6351562, “Structure, function, and inhibition of drug reactivating human gut microbial β-glucuronidases” (Scientific Reports, 2019)
